In brackets after ≈: the same amount, converted by molar mass.
Experiments:
[1] = system: Mycobacterium tuberculosis; test: Growth inhibition of Mycobacterium tuberculosis H37Ra ATCC 25177 at 30 ug/ml by XTT dye based two-fold dilution method relative to control; assay type: functional; conditions: read-out: GI
[2] = system: Mycobacterium tuberculosis; test: Growth inhibition of Mycobacterium tuberculosis H37Ra ATCC 25177 at 10 ug/ml by XTT dye based two-fold dilution method relative to control; assay type: functional; conditions: read-out: GI
[3] = system: Mycobacterium tuberculosis; test: Growth inhibition of Mycobacterium tuberculosis H37Ra ATCC 25177 at 3 ug/ml by XTT dye based two-fold dilution method relative to control; assay type: functional; conditions: read-out: GI
[4] = system: Mycobacterium tuberculosis; test: Growth inhibition of Mycobacterium bovis BCG ATCC 35743 at 30 ug/ml by nitrate reductase based two-fold dilution assay relative to control; assay type: functional; conditions: BCG str. ATCC 35743, read-out: GI
[5] = system: Mycobacterium tuberculosis; test: Growth inhibition of Mycobacterium bovis BCG ATCC 35743 at 10 ug/ml by nitrate reductase based two-fold dilution assay relative to control; assay type: functional; conditions: BCG str. ATCC 35743, read-out: GI
[6] = system: Mycobacterium tuberculosis; test: Growth inhibition of Mycobacterium bovis BCG ATCC 35743 at 1 ug/ml by nitrate reductase based two-fold dilution assay relative to control; assay type: functional; conditions: BCG str. ATCC 35743, read-out: GI
[7] = system: Mycobacterium tuberculosis; test: Antitubercular activity against Mycobacterium tuberculosis H37Ra ATCC 25177 dormant stage by XTT dye based two-fold dilution method; assay type: functional
[8] = system: Mycobacterium tuberculosis; test: Antitubercular activity against Mycobacterium bovis BCG ATCC 35743 dormant stage by nitrate reductase based two-fold dilution assay; assay type: functional; conditions: BCG str. ATCC 35743
Escherichia coli [9] = test: Growth inhibition of Escherichia coli NCIM 2576 at 30 ug/ml measured after 8 hrs relative to control; assay type: functional; conditions: NCIM 2576, 8 h, read-out: GI
Escherichia coli [10] = test: Growth inhibition of Escherichia coli NCIM 2576 at 10 ug/ml measured after 8 hrs relative to control; assay type: functional; conditions: NCIM 2576, 8 h, read-out: GI
Escherichia coli [11] = test: Growth inhibition of Escherichia coli NCIM 2576 at 1 ug/ml measured after 8 hrs relative to control; assay type: functional; conditions: NCIM 2576, 8 h, read-out: GI
Pseudomonas fluorescens [12] = test: Growth inhibition of Pseudomonas fluorescens NCIM 2059 at 30 ug/ml measured after 8 hrs relative to control; assay type: functional; conditions: NCIM 2059, 8 h, read-out: GI
Pseudomonas fluorescens [13] = test: Growth inhibition of Pseudomonas fluorescens NCIM 2059 at 10 ug/ml measured after 8 hrs relative to control; assay type: functional; conditions: NCIM 2059, 8 h, read-out: GI
Pseudomonas fluorescens [14] = test: Growth inhibition of Pseudomonas fluorescens NCIM 2059 at 1 ug/ml measured after 8 hrs relative to control; assay type: functional; conditions: NCIM 2059, 8 h, read-out: GI
Staphylococcus aureus [15] = test: Growth inhibition of Staphylococcus aureus NCIM 2602 at 30 ug/ml measured after 12 hrs relative to control; assay type: functional; conditions: NCIM 2602, 12 h, read-out: GI
Staphylococcus aureus [16] = test: Growth inhibition of Staphylococcus aureus NCIM 2602 at 10 ug/ml measured after 12 hrs relative to control; assay type: functional; conditions: NCIM 2602, 12 h, read-out: GI
Staphylococcus aureus [17] = test: Growth inhibition of Staphylococcus aureus NCIM 2602 at 1 ug/ml measured after 12 hrs relative to control; assay type: functional; conditions: NCIM 2602, 12 h, read-out: GI
Bacillus subtilis [18] = test: Growth inhibition of Bacillus subtilis NCIM 2162 at 30 ug/ml measured after 12 hrs relative to control; assay type: functional; conditions: NCIM 2162, 12 h, read-out: GI
Bacillus subtilis [19] = test: Growth inhibition of Bacillus subtilis NCIM 2162 at 10 ug/ml measured after 12 hrs relative to control; assay type: functional; conditions: NCIM 2162, 12 h, read-out: GI
Bacillus subtilis [20] = test: Growth inhibition of Bacillus subtilis NCIM 2162 at 1 ug/ml measured after 12 hrs relative to control; assay type: functional; conditions: NCIM 2162, 12 h, read-out: GI
Escherichia coli [21] = test: Antibacterial activity against Escherichia coli NCIM 2576 measured after 8 hrs; assay type: functional; conditions: NCIM 2576, 8 h
Pseudomonas fluorescens [22] = test: Antibacterial activity against Pseudomonas fluorescens NCIM 2059 measured after 8 hrs; assay type: functional; conditions: NCIM 2059, 8 h
Staphylococcus aureus [23] = test: Antibacterial activity against Staphylococcus aureus NCIM 2602 measured after 12 hrs; assay type: functional; conditions: NCIM 2602, 12 h
Bacillus subtilis [24] = test: Antibacterial activity against Bacillus subtilis NCIM 2162 measured after 12 hrs; assay type: functional; conditions: NCIM 2162, 12 h
[25] = (§1) Growth inhibition of human HeLa cells by MTT assay; assay type: cell-based; conditions: HeLa cells
HeLa = test: as §1; assay type: cell-based; conditions: hela
[26] = (§2) Growth inhibition of human A549 cells by MTT assay; assay type: cell-based; conditions: A549 cells
A549 = test: as §2; assay type: cell-based; conditions: a549
[27] = (§3) Growth inhibition of human PANC1 cells by MTT assay; assay type: cell-based, PANC-1; conditions: PANC-1 cells
PANC-1 = test: as §3; assay type: cell-based; conditions: panc-1
[28] = Selectivity index, ratio of GI50 for human HeLa cells to MIC for Mycobacterium tuberculosis H37Ra ATCC 25177 dormant stage; assay type: toxicity, cell-based; conditions: read-out: Selectivity Index
[29] = Selectivity index, ratio of GI50 for human HeLa cells to MIC for Mycobacterium bovis BCG ATCC 35743 dormant stage; assay type: toxicity, cell-based; conditions: read-out: Selectivity Index
[30] = Selectivity index, ratio of GI50 for human A549 cells to MIC for Mycobacterium tuberculosis H37Ra ATCC 25177 dormant stage; assay type: toxicity; conditions: read-out: Selectivity Index
[31] = Selectivity index, ratio of GI50 for human A549 cells to MIC for Mycobacterium bovis BCG ATCC 35743 dormant stage; assay type: toxicity; conditions: read-out: Selectivity Index
[32] = Selectivity index, ratio of GI50 for human PANC1 cells to MIC for Mycobacterium tuberculosis H37Ra ATCC 25177 dormant stage; assay type: toxicity; conditions: PANC-1 cells, read-out: Selectivity Index
[33] = Selectivity index, ratio of GI50 for human PANC1 cells to MIC for Mycobacterium bovis BCG ATCC 35743 dormant stage; assay type: toxicity; conditions: PANC-1 cells, read-out: Selectivity Index

Row | Structure (SMILES) | inhibition of growth at 30 µg/mL [1] [%] | inhibition of growth at 10 µg/mL [2] [%] | inhibition of growth at 3 µg/mL [3] [%] | inhibition of growth at 30 µg/mL [4] [%] | inhibition of growth at 10 µg/mL [5] [%] | inhibition of growth at 1 µg/mL [6] [%] | IC50 [7] [µM] | MIC90 [7] [µM] | IC50 [8] [µM] | MIC90 [8] [µM] | inhibition of growth at 30 µg/mL (Escherichia coli [9]) [%] | inhibition of growth at 10 µg/mL (Escherichia coli [10]) [%] | inhibition of growth at 1 µg/mL (Escherichia coli [11]) [%] | inhibition of growth at 30 µg/mL (Pseudomonas fluorescens [12]) [%] | inhibition of growth at 10 µg/mL (Pseudomonas fluorescens [13]) [%] | inhibition of growth at 1 µg/mL (Pseudomonas fluorescens [14]) [%] | inhibition of growth at 30 µg/mL (Staphylococcus aureus [15]) [%] | inhibition of growth at 10 µg/mL (Staphylococcus aureus [16]) [%] | inhibition of growth at 1 µg/mL (Staphylococcus aureus [17]) [%] | inhibition of growth at 30 µg/mL (Bacillus subtilis [18]) [%] | other results
1 | Cc1nc(-c2ccc(F)cc2)oc1-c1csc(Cc2ccccc2)n1 | 99 | 94 | 95 | 97 | 96 | 97 | 0.49 | 6.2 (≈ 2.17 µg/mL) | 0.54 | 7.33 (≈ 2.57 µg/mL) | 94 | 90.3 | 88.8 | 99.6 | 92.4 | 87 | 98.5 | 95.9 | 93.9 | 99.9 | inhibition of growth at 10 µg/mL (Bacillus subtilis [19]): 95.8%; inhibition of growth at 1 µg/mL (Bacillus subtilis [20]): 91.2%; MIC (Escherichia coli [21]): 20.6 µM (≈ 7.2 µg/mL); MIC (Pseudomonas fluorescens [22]): 19.1 µM (≈ 6.7 µg/mL); MIC (Staphylococcus aureus [23]): 6.85 µM (≈ 2.4 µg/mL); MIC (Bacillus subtilis [24]): 5.99 µM (≈ 2.1 µg/mL); GI50 [25]: 148 µg/mL (≈ 423 µM); GI90 (HeLa): 248.63 µg/mL (≈ 710 µM); GI50 [26]: > 250 µg/mL; GI90 (A549): > 250 µg/mL; GI50 [27]: > 250 µg/mL; GI90 (PANC-1): > 250 µg/mL; selectivity ratio [28]: 68; selectivity ratio [29]: 58; selectivity ratio [30]: 115; selectivity ratio [31]: 97; selectivity ratio [32]: 115; selectivity ratio [33]: 97
2 | Cc1nc(-c2ccccc2)oc1-c1csc(-c2ccccc2)n1 | 93 | 71 | 56 | 92 | 63 | 63 | 8.66 | 87.5 (≈ 27.9 µg/mL) | 7.34 | 85.9 (≈ 27.4 µg/mL) | 98.2 | 94.2 | 91.2 | 97.7 | 93.4 | 88.9 | 94.2 | 89.9 | 85.7 | 96.8 | inhibition of growth at 10 µg/mL (Bacillus subtilis [19]): 93.2%; inhibition of growth at 1 µg/mL (Bacillus subtilis [20]): 91.3%; MIC (Escherichia coli [21]): 7.54 µM (≈ 2.4 µg/mL); MIC (Pseudomonas fluorescens [22]): 13.8 µM (≈ 4.4 µg/mL); MIC (Staphylococcus aureus [23]): 39.3 µM (≈ 12.5 µg/mL); MIC (Bacillus subtilis [24]): 7.91 µM (≈ 2.52 µg/mL); GI50 [25]: 123 µg/mL (≈ 387 µM); GI90 (HeLa): > 250 µg/mL; GI50 [26]: > 250 µg/mL; GI90 (A549): > 250 µg/mL; GI50 [27]: > 250 µg/mL; GI90 (PANC-1): > 250 µg/mL; selectivity ratio [28]: 4; selectivity ratio [29]: 5; selectivity ratio [30]: 9; selectivity ratio [31]: 9; selectivity ratio [32]: 9; selectivity ratio [33]: 9

— ChEMBL document CHEMBL4024727, “Synthesis and antimycobacterial screening of new thiazolyl-oxazole derivatives” (Eur J Med Chem, 2017)
